Assay results published in patent publication US20240018161A1, “MODULATORS OF CYSTIC FIBROSIS TRANSMEMBRANE CONDUCTANCE REGULATOR” (VERTEX PHARMACEUTICALS INCORPORATED, priority 2020, published 2024).
Like-named read-outs stand apart in the source and are kept apart here.

Molecular target: CFTR-mediated chloride transport in human intestinal epithelial enteroid cells (Homo sapiens, UniProt P13569)
Experiment: Membrane potential dye, Enteroid Assay A
Assay type: cell-based
Conditions: for EC50: read-out: Ent. A EC50
Method in brief: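 Membrane potential dye (20 μM methyl oxonol, with 30 μM CaCCinh-A01 and 30 μM Chicago Sky Blue) loaded 25 min at room temperature into ROCK-inhibitor-seeded human enteroid cells. Chloride-free stimulation buffer triggered transport, followed by 15 min fluorescence. % Activity relative to 3 μM/3 μM/300 nM triple-combination control.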

[1] = enteroid cells incubated with test compound 18-24 hours, acute 10 μM forskolin and 300 nM N-[2,4-bis(1,1-dimethylethyl)-5-hydroxyphenyl]-1,4-dihydro-4-oxoquinoline-3-carboxamide
[2] = percentage of chloride transport of triple combination control (3 μM N-[(6-amino-2-pyridyl)sulfonyl]-6-(3-fluoro-5-isobutoxy-phenyl)-2-[(4S)-2,2,4-trimethylpyrrolidin-1-yl]pyridine-3-carboxamide based)

Sequence of CFTR-mediated chloride transport in human intestinal epithelial enteroid cells (P13569 with tags, fused parts or gaps DEL508-508): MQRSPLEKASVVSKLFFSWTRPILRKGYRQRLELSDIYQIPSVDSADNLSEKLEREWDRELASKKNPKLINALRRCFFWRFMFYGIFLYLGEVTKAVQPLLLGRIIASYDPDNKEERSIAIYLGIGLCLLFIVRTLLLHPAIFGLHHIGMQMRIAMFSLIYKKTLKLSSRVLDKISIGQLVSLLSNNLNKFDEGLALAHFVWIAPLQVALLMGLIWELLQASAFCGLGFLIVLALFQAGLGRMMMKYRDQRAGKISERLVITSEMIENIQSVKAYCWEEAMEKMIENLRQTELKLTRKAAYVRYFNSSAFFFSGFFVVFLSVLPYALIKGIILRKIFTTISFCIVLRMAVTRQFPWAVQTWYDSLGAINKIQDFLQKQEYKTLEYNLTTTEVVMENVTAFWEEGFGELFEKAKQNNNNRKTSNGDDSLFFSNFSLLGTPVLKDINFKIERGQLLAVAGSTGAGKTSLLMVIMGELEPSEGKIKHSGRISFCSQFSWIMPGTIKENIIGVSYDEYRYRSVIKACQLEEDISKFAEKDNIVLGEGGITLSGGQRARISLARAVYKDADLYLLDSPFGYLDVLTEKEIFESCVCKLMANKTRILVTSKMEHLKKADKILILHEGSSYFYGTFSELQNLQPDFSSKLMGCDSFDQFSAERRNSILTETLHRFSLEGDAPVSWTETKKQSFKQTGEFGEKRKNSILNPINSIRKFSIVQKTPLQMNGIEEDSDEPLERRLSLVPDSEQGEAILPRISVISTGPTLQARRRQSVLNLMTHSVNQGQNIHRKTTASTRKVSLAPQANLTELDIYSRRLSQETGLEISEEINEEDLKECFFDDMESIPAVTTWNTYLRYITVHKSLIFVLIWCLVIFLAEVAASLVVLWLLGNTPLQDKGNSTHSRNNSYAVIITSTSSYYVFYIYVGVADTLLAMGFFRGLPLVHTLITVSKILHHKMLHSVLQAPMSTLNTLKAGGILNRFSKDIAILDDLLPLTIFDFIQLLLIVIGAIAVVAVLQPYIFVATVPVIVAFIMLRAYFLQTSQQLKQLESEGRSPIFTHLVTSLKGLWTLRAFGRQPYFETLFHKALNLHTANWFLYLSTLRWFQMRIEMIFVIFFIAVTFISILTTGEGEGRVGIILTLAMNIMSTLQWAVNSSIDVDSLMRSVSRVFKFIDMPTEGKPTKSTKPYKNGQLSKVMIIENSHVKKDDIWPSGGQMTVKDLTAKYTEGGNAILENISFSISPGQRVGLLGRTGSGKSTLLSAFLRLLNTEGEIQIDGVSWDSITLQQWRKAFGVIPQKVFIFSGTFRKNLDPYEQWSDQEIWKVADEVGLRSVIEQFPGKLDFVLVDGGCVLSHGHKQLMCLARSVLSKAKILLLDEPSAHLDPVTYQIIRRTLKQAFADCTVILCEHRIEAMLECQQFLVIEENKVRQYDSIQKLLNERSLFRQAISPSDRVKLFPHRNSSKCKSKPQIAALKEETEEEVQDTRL

Structure (SMILES) | Ent. A Max Activity (%) (Enteroid Assay A) | EC50 (Enteroid Assay A) [µM] | EC50 [1] [µM] | Ent. A Max Activity (%) [2]
Cc1cccc(C)c1-c1cc2nc(n1)NS(=O)(=O)c1cccc(c1)C(=O)N1CCN(CC3CC(C(=O)O)C3)C[C@H](C1)O2 (some centres unmarked) [Compound 29] | +++ (+++ is >600%) | 3 to 30 | – | –
Cc1cccc(C)c1-c1cc2nc(n1)NS(=O)(=O)c1cccc(c1)C(=O)N1CCN(CC3CCOC3)C[C@H](C1)O2 (some centres unmarked) [Compound 30] | +++ (+++ is >600%) | 1 to 3 | – | –
CCCN1CCN2C[C@@H](C1)Oc1cc(-c3c(C)cccc3C)nc(n1)NS(=O)(=O)c1cccc(c1)C2=O [Compound 31] | +++ (+++ is >600%) | < 1 | – | –
CCCCN1CCN2C[C@@H](C1)Oc1cc(-c3c(C)cccc3C)nc(n1)NS(=O)(=O)c1cccc(c1)C2=O [Compound 32] | +++ (+++ is >600%) | < 1 | – | –
Cc1cccc(C)c1-c1cc2nc(n1)NS(=O)(=O)c1cccc(c1)C(=O)N1CCN(CCCCO)C[C@H](C1)O2 [Compound 33] | +++ (+++ is >600%) | 3 to 30 | – | –
CCOC(=O)C1CC1CN1CCN2C[C@@H](C1)Oc1cc(-c3c(C)cccc3C)nc(n1)NS(=O)(=O)c1cccc(c1)C2=O (some centres unmarked) [Compound 34] | +++ (+++ is >600%) | < 1 | – | –
Cc1cccc(C)c1-c1cc2nc(n1)NS(=O)(=O)c1cccc(c1)C(=O)N1CCN(CC3CC3)C[C@H](C1)O2 [Compound 35, (16R)-18-(Cyclopropylmethyl)-12-(2,6-dimethylphenyl)-8,8-dioxo-15-oxa-8λ^6-thia-1,9,11,18,22-pentazatetracyclo[14.4.1.13,7.110,14]tricosa-3,5,7(23),10(22),11,13-hexaen-2-one] | – | – | < 1 | +++ (+++ is >60%)
Cc1cccc(C)c1-c1cc2nc(n1)NS(=O)(=O)c1cccc(c1)C(=O)N1CCN(C3CCC(F)CC3)C[C@H](C1)O2 (stereo partly drawn) [Compound 40, (16R)-12-(2,6-Dimethylphenyl)-18-(4-fluorocyclohexyl)-15-oxa-8λ^6-thia-1,9,11,18,22-pentaazatetracyclo[14.4.1.13,7.110,14]tricosa-3(23),4,6,10,12,14(22)-hexaene-2,8,8-trione] | +++ (+++ is >600%) | < 1 | – | –
Cc1cccc(C)c1-c1cc2nc(n1)NS(=O)(=O)c1cccc(c1)C(=O)N1CCN(C3CCC4(CC3)COC4)C[C@H](C1)O2 [Compound 41, (16R)-12-(2,6-Dimethylphenyl)-18-{2-oxaspiro[3.5]nonan-7-yl}-15-oxa-8λ^6-thia-1,9,11,18,22-pentaazatetracyclo[14.4.1.13,7.110,14]tricosa-3(23),4,6,10,12,14(22)-hexaene-2,8,8-trione] | +++ (+++ is >600%) | < 1 | – | –
Cc1cccc(C)c1-c1cc2nc(n1)NS(=O)(=O)c1cccc(c1)C(=O)N1CCNCC(C1)O2 (centres unmarked) [Compound 42, 12-(2,6-Dimethylphenyl)-15-oxa-8λ^6-thia-1,9,11,18,22-pentaazatetracyclo[14.4.1.13,7.110,14]tricosa-3(23),4,6,10(22),11,13-hexaene-2,8,8-trione] | – | – | – | ++ (++ is 30-60%)
Cc1cccc(C)c1-c1cc2nc(n1)NS(=O)(=O)c1cccc(c1)C(=O)N1CCN(CC(C)C)CC(C1)O2 (centres unmarked) [Compound 44, 12-(2,6-Dimethylphenyl)-18-isobutyl-8,8-dioxo-15-oxa-8λ^6-thia-1,9,11,18,22-pentazatetracyclo[14.4.1.13,7.110,14]tricosa-3,5,7(23),10(22),11,13-hexaen-2-one] | – | – | < 1 | +++ (+++ is >60%)
Cc1cccc(C)c1-c1cc2nc(n1)NS(=O)(=O)c1cccc(c1)C(=O)N1CCN(CCC(C)(C)C)CC(C1)O2 (centres unmarked) [Compound 45] | – | – | < 1 | +++ (+++ is >60%)
Cc1cccc(C)c1-c1cc2nc(n1)NS(=O)(=O)c1cccc(c1)C(=O)N1CCN(C3CCC(F)(F)CC3)CC(C1)O2 (centres unmarked) [Compound 46] | +++ (+++ is >600%) | < 1 | – | –
CNc1ccc(CN2CCN3CC(C2)Oc2cc(-c4c(C)cccc4C)nc(n2)NS(=O)(=O)c2cccc(c2)C3=O)cn1 (centres unmarked) [Compound 47] | – | – | 3 to 30 | +++ (+++ is >60%)
Cc1cccc(C)c1-c1cc2nc(n1)NS(=O)(=O)c1cccc(c1)C(=O)N1CCN(Cc3ccn[nH]3)CC(C1)O2 (centres unmarked) [Compound 48] | – | – | 3 to 30 | ++ (++ is 30-60%)
Cc1cccc(C)c1-c1cc2nc(n1)NS(=O)(=O)c1cccc(c1)C(=O)N1CCN(Cc3ccn(C)n3)CC(C1)O2 (centres unmarked) [Compound 49] | – | – | 3 to 30 | +++ (+++ is >60%)

Structure (SMILES) | Ent. A Max Activity (%) (Enteroid Assay A) | EC50 (Enteroid Assay A) [µM] | EC50 [1] [µM] | Ent. A Max Activity (%) [2]
Cc1cccc(C)c1-c1cc2nc(n1)NS(=O)(=O)c1cccc(c1)C(=O)N1CCN(Cc3cncn3C)CC(C1)O2 (centres unmarked) [Compound 51] | – | – | – | + (+ is <300%)
Cc1cccc(C)c1-c1cc2nc(n1)NS(=O)(=O)c1cccc(c1)C(=O)N1CCN(Cc3nccs3)CC(C1)O2 (centres unmarked) [Compound 52] | – | – | 1 to 3 | ++ (++ is 30-60%)
Cc1cccc(C)c1-c1cc2nc(n1)NS(=O)(=O)c1cccc(c1)C(=O)N1CCN(CC3CCCCC3)CC(C1)O2 (centres unmarked) [Compound 53] | – | – | < 1 | ++ (++ is 30-60%)
Cc1cccc(C)c1-c1cc2nc(n1)NS(=O)(=O)c1cccc(c1)C(=O)N1CCN(Cc3ccccc3C#N)CC(C1)O2 (centres unmarked) [Compound 54] | – | – | < 1 | +++ (+++ is >60%)
Cc1cccc(C)c1-c1cc2nc(n1)NS(=O)(=O)c1cccc(c1)C(=O)N1CCN(CC3CCOCC3)CC(C1)O2 (centres unmarked) [Compound 55] | – | – | 3 to 30 | +++ (+++ is >60%)
Cc1cccc(C)c1-c1cc2nc(n1)NS(=O)(=O)c1cccc(c1)C(=O)N1CCN(CC3(C)COC3)CC(C1)O2 (centres unmarked) [Compound 56] | – | – | 3 to 30 | ++ (++ is 30-60%)
Cc1cccc(C)c1-c1cc2nc(n1)NS(=O)(=O)c1cccc(c1)C(=O)N1CCN(Cc3ccccc3O)CC(C1)O2 (centres unmarked) [Compound 57] | – | – | < 1 | +++ (+++ is >60%)
Cc1cccc(C)c1-c1cc2nc(n1)NS(=O)(=O)c1cccc(c1)C(=O)N1CCN(CCC(C)C)CC(C1)O2 (centres unmarked) [Compound 58] | – | – | < 1 | +++ (+++ is >60%)
Cc1cccc(C)c1-c1cc2nc(n1)NS(=O)(=O)c1cccc(c1)C(=O)N1CCN(CC3CC4C=CC3C4)CC(C1)O2 (centres unmarked) [Compound 59] | – | – | < 1 | +++ (+++ is >60%)
Cc1cccc(C)c1-c1cc2nc(n1)NS(=O)(=O)c1cccc(c1)C(=O)N1CCN(CCC3CCOCC3)CC(C1)O2 (centres unmarked) [Compound 60] | – | – | 3 to 30 | +++ (+++ is >60%)
Cc1cccc(C)c1-c1cc2nc(n1)NS(=O)(=O)c1cccc(c1)C(=O)N1CCN(Cc3sccc3Oc3ccccc3)CC(C1)O2 (centres unmarked) [Compound 61] | – | – | < 1 | +++ (+++ is >60%)
Cc1cccc(C)c1-c1cc2nc(n1)NS(=O)(=O)c1cccc(c1)C(=O)N1CCN(CCC(C)CC(C)(C)C)CC(C1)O2 (centres unmarked) [Compound 62] | – | – | < 1 | +++ (+++ is >60%)
Cc1cccc(C)c1-c1cc2nc(n1)NS(=O)(=O)c1cccc(c1)C(=O)N1CCN(C)CC(C1)O2 (centres unmarked) [Compound 63] | – | – | 3 to 30 | +++ (+++ is >60%)
Cc1cccc(C)c1-c1cc2nc(n1)NS(=O)(=O)c1cccc(c1)C(=O)N1CCN(Cc3ccccn3)CC(C1)O2 (centres unmarked) [Compound 64, 12-(2,6-Dimethylphenyl)-18-[(pyridin-2-yl)methyl]-15-oxa-8λ^6-thia-1,9,11,18,22-pentaazatetracyclo[14.4.1.13,7.110,14]tricosa-3(23),4,6,10(22),11,13-hexaene-2,8,8-trione] | – | – | 1 to 3 | ++ (++ is 30-60%)
Cc1cccc(C)c1-c1cc2nc(n1)NS(=O)(=O)c1cccc(c1)C(=O)N1CCN(CCCC(C)(C)C)CC(C1)O2 (centres unmarked) [Compound 65, 18-(4,4-Dimethylpentyl)-12-(2,6-dimethylphenyl)-15-oxa-8λ^6-thia-1,9,11,18,22-pentaazatetracyclo[14.4.1.13,7.110,14]tricosa-3(23),4,6,10(22),11,13-hexaene-2,8,8-trione] | – | – | < 1 | ++ (++ is 30-60%)
Cc1cccc(C)c1-c1cc2nc(n1)NS(=O)(=O)c1cccc(c1)C(=O)N1CCN(Cc3cccnc3)C[C@H](C1)O2 [Compound 66, (36R)-16-(2,6-dimethylphenyl)-34-(pyridin-3-ylmethyl)-2-oxa-6-thia-7-aza-3(6,1)-diazepana-1(4,2)-pyrimidina-5(1,3)-benzenacycloheptaphan-4-one 6,6-dioxide] | – | – | 3 to 30 | ++ (++ is 30-60%)
